According to patent US4672068A, “Antihypertensive 1,4-dihydropyridines having a conjugated ester” (Fujirebio Kabushiki Kaisha, priority 1984, dated 1987):

Columns and labels:
[1] = system: rat (SHR), blood pressure and heart rate; experiment: Depressor response of trans- and cis-forms, dose-response intravenous, Tables 5 and 6; format: in vivo; conditions: for ED40: Rattus norvegicus, intravenous, from regression line
Experimental: Male spontaneously hypertensive rats (SHR) which had mean arterial blood pressures higher than 140 mmHg were used for the experiments. Arterial blood pressure was measured through the catherized artery with a pressure transducer (MPU-0.5, manufactured by Nihon Kohden Kabushiki Kaisha). The catheter was inserted into the abdominal aorta via the median coccygcal artery of SHR under light ether anesthesia. The recordings were made on a rectigraph (manufactured by Sanei Sokki Kabushiki Kaisha). The 1,4-dihydropyridine derivatives prepared in the foregoing examples were administered with catheter which was inserted previously into the caudal vein or duodenum at least two hours after the operation. SHR were restrained with wire mesh cage immediately after the operation. […]

[2] = system: Male spontaneously hypertensive rats (SHR), arterial blood pressure; experiment: Depressor response after intraduodenal administration (1 mg/kg), Table 2; format: in vivo, rat; conditions: for Half-life: '120<' means greater than 120
Experimental: Arterial blood pressure was measured through the catherized artery with a pressure transducer (MPU-0.5, manufactured by Nihon Kohden Kabushiki Kaisha). The catheter was inserted into the abdominal aorta via the median coccygcal artery of SHR under light ether anesthesia. The recordings were made on a rectigraph (manufactured by Sanei Sokki Kabushiki Kaisha). The 1,4-dihydropyridine derivatives prepared in the foregoing examples were administered with catheter which was inserted previously into the caudal vein or duodenum at least two hours after the operation. SHR were restrained with wire mesh cage immediately after the operation.

[3] = system: Male spontaneously hypertensive rats (SHR), arterial blood pressure; experiment: Depressor response after intravenous administration (30 μg/kg), Table 1; format: in vivo, rat; conditions: for Duration: '90<' means greater than 90
How it was run: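 Conscious restrained SHR with mean arterial pressure above 140 mmHg; pressure recorded via abdominal aortic catheter and transducer. Dosing was at least 2 h after surgery, through a caudal vein catheter. Compound was given in 1.5% PVP/ethanol diluted with 0.9% saline.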

[4] = system: Male SHR, systolic blood pressure; experiment: Systolic blood pressure by tail cuff method, oral administration (3 mg/kg), Table 4; format: in vivo, rat; conditions: conscious SHR; for Duration: '24<' means greater than 24
Experimental: Systolic blood pressure was measured by the tail cuff method with electrophygmomanometer (PE-300, made by Narco Co.). Each derivative (3 mg/kg) was administered orally, suspended in 5% gum arabic solution.

in vivo = conditions: mouse, iv
Experimental: Acute toxicity of several derivatives was tested with male ddy mice weighed 15-30 grams by the up and down method. Each derivative was dissolved in 1.5% PVP/ethanol solution, and diluted with a saline solution. Such derivative solution was injected into the caudal vein, and the acute toxicity was determined.

[5] = male ddy mice, caudal vein injection, '60<' means greater than 60

Structure (SMILES) | Depressure Response MaxΔBP ([1]; 10 μg/kg i.v.) | Depressure Response Peak ([1]; 10 μg/kg i.v.) | MaxΔHR (Heart rates) ([1]; 10 μg/kg i.v.) | T 1/2 (Halflife) ([1]; 10 μg/kg i.v.) | Depressure Response MaxΔBP ([1]; 30 μg/kg i.v.) | Depressure Response Peak ([1]; 30 μg/kg i.v.) | MaxΔHR (Heart rates) ([1]; 30 μg/kg i.v.) | T 1/2 (Halflife) ([1]; 30 μg/kg i.v.) | Depressure Response MaxΔBP ([1]; 100 μg/kg i.v.) | Depressure Response Peak ([1]; 100 μg/kg i.v.) | The time to reach the lowest BP [2] | ΔBP (Maximum depressor response) [2] | Half-life [2] | The time to reach the lowest BP [3] | ΔBP (Maximum depressor response) [3] | Duration [3] | ΔBP After 1 hour [4] | ΔBP After 3 hours [4] | Duration [4] | LD50 (in vivo; [5]) | also measured
COC(=O)C1=C(C)NC(C)=C(C(=O)OC/C=C/c2ccccc2)C1c1cccc([N+](=O)[O-])c1 (stereo not drawn) [Example 1, cinnamyl methyl 4-(3-nitrophenyl)-2,6-dimethyl-1,4-dihydropyridine-3,5-dicarboxylate (trans)] | 35.0 mmHg | 2.0 min | 28.3 beats/min | 32.6 min | 52.2 mmHg | 1.8 min | 65.3 beats/min | 26.7 min | 69.0 mmHg | 2.0 min | 43.7 min | 35.0 mmHg | > 120 min | 1.7 min | 44 mmHg | > 90 min | -75 mmHg | -80.5 mmHg | 7 to 24 h | – | MaxΔHR (Heart rates) ([1]; 100 μg/kg i.v.): 32.5 beats/min; T 1/2 (Halflife) ([1]; 100 μg/kg i.v.): 48.5 min; ED40 [1]: 0.0156 mg/kg
COC(=O)C1=C(C)NC(C)=C(C(=O)OCC/C=C\c2ccc3ccccc3c2)C1c1cccc([N+](=O)[O-])c1 (stereo not drawn) [Example 57, Methyl (Z)-4-(2-naphthyl)-3-butenyl 4-(3-nitrophenyl)-2,6-dimethyl-1,4-dihydropyridine-3,5-dicarboxylate (cis)] | 12.0 mmHg | 3.2 min | 23.3 beats/min | 14.0 min | 26.8 mmHg | 2.6 min | 62.5 beats/min | 15.0 min | 68.5 mmHg | 3.8 min | – | – | – | 2.6 min | 26.8 mmHg | – | – | – | – | > 75 mg/kg | MaxΔHR (Heart rates) ([1]; 100 μg/kg i.v.): 120 beats/min; T 1/2 (Halflife) ([1]; 100 μg/kg i.v.): 25.0 min; ED40 [1]: 0.0408 mg/kg
COC(=O)C1=C(C)NC(C)=C(C(=O)OCCN(C)Cc2ccccc2)C1c1cccc([N+](=O)[O-])c1.Cl (centres unmarked) [B, 4-(m-nitrophenyl)-2,6-dimethyl-1,4-dihydropyridine-3,5-dicarboxylic acid-3-methyl ester-5-[2-(benzylmethylamino)-ethyl]ester hydrochloride, reference compound] | – | – | – | – | – | – | – | – | – | – | 10.7 min | 35 mmHg | 46.7 min | 0.6 min | 58.3 mmHg | 45 to 90 min | -27 mmHg | -4.5 mmHg | < 3 h | 9.7 mg/kg | –
COC(=O)C1=C(C)NC(C)=C(C(=O)OC)C1c1ccccc1[N+](=O)[O-] [A, 4-(o-nitrophenyl)-2,6-dimethyl-1,4-dihydropyridine-3,5-dicarboxylic acid dimethyl ester, reference compound] | – | – | – | – | – | – | – | – | – | – | 6.0 min | 48.3 mmHg | – | 0.9 min | 18.7 mmHg | 35.6 ± 6.5 min | -45 mmHg | -22.0 mmHg | < 7 h | – | –
COC(=O)C1=C(C)NC(C)=C(C(=O)OCC/C=C/c2ccc3ccccc3c2)C1c1cccc([N+](=O)[O-])c1 (stereo not drawn) [12 (trans), 4-β-naphthyl-3-butenyl methyl 4-(3-nitrophenyl)-2,6-dimethyl-1,4-dihydropyridine-3,5-dicarboxylate] | 21.7 mmHg | 2.8 min | 43.3 beats/min | 11.3 min | 54.8 mmHg | 4.1 min | 90.0 beats/min | 16.0 min | 72.5 mmHg | 4.3 min | 50 min | 25 mmHg | 100 min | 3.0 min | 50 mmHg | > 90 min | – | – | – | – | MaxΔHR (Heart rates) ([1]; 100 μg/kg i.v.): 80.0 beats/min; T 1/2 (Halflife) ([1]; 100 μg/kg i.v.): 37.5 min; ED40 [1]: 0.0199 mg/kg; LD50 (in vivo): > 60 mg/kg
COC(=O)C1=C(C)NC(C)=C(C(=O)OCC#Cc2ccccc2)C1c1cccc([N+](=O)[O-])c1 (centres unmarked) [Example 55, Methyl phenylpropargyl 4-(3-nitrophenyl)-2,6-dimethyl-1,4-dihydropyridine-3,5-dicarboxylate] | – | – | – | – | – | – | – | – | – | – | 60 min | 45 mmHg | > 240 min | 2 min | 55 mmHg | > 90 min | -65 mmHg | -75 mmHg | > 24 h | > 60 mg/kg | –
COC(=O)C1=C(C)NC(C)=C(C(=O)OCCC=Cc2ccc(SC)cc2)C1c1cccc([N+](=O)[O-])c1 (centres unmarked) [Example 24, 4-(p-methylthiophenyl)-3-butenylmethyl 4-(3-nitrophenyl)-2,6-dimethyl-1,4-dihydropyridine-3,5-dicarboxylate] | – | – | – | – | – | – | – | – | – | – | 160 min | 27 mmHg | > 160 min | 2.1 min | 60 mmHg | 120 min | – | – | – | 50 mg/kg | –
COC(=O)C1=C(C)NC(C)=C(C(=O)OCC=Cc2ccco2)C1c1cccc([N+](=O)[O-])c1 (centres unmarked) [Example 7, 3-(2furyl)-2-propenyl methyl 4-(3-nitrophenyl)-2,6-dimethyl-1,4-dihydropyridine-3,5-dicarboxylate] | – | – | – | – | – | – | – | – | – | – | 105 min | 20 mmHg | > 120 min | – | – | – | – | – | – | > 60 mg/kg | –
COC(=O)C1=C(C)NC(C)=C(C(=O)OCCC=Cc2ccc(C#N)cc2)C1c1cccc([N+](=O)[O-])c1 (centres unmarked) [Example 17, 4-(4-cyanophenyl)-3-butenyl methyl 4-(3-nitrophenyl)-2,6-dimethyl-1,4-dihydropyridine-3,5-dicarboxylate] | – | – | – | – | – | – | – | – | – | – | 180 min | 25 mmHg | > 200 min | 1.0 min | 70 mmHg | > 80 min | – | – | – | 45 mg/kg | –
